Test results from patent publication US10246469B2, “Biaryl kinase inhibitors” (BRISTOL-MYERS SQUIBB COMPANY, priority 2015, dated 2019).

Target: T1, GST-Xa-hAAK1 (Homo sapiens, UniProt Q2M2I8)
T1 construct: GST (N); Factor Xa cleavage site (Xa) (internal); made in house
Assay: AAK1 Kinase Assay
Format: biochemical
Conditions: bacterially expressed GST-Xa-hAAK1 3.5 nM; ATP 22 μM; fluoresceinated peptide 1.5 μM; 3 hours at room temperature; Caliper LabChip 3000
Procedure, shortened: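 Bacterially expressed GST-Xa-hAAK1 (3.5 nM) phosphorylated 1.5 μM 5-FAM peptide with 22 μM ATP in Tris pH 7.4, MgCl2, DTT, 1.6% DMSO, 3 h at room temperature. EDTA-stopped; product separated electrophoretically on Caliper LabChip. IC50 from eleven concentrations by non-linear regression.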

T1 sequence (Q2M2I8 whole entry): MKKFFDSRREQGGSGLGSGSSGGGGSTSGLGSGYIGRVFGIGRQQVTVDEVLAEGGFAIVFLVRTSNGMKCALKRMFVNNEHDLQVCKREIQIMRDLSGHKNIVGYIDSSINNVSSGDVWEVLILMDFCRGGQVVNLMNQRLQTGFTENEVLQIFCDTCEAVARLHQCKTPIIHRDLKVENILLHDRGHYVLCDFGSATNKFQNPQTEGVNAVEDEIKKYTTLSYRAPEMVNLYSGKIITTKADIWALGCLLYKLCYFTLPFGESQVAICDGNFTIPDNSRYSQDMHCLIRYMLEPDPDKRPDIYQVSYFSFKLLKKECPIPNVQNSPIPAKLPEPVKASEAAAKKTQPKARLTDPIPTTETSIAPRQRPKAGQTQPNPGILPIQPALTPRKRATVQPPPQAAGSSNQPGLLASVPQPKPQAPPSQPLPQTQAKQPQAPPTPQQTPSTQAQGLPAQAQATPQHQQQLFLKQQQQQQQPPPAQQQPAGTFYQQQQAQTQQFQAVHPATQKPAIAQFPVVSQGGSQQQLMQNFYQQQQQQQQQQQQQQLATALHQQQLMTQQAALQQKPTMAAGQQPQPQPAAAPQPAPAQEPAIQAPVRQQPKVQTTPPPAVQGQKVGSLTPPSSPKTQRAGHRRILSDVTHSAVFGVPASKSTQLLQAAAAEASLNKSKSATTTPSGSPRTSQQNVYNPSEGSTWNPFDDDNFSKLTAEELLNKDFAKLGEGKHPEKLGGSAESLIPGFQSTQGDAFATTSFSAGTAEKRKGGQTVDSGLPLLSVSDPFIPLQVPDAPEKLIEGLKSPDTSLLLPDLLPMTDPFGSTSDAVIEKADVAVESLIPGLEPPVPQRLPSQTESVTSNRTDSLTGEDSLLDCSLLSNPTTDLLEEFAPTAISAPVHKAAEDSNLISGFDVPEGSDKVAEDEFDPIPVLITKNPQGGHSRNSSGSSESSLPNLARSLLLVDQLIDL

Work on `CC(C)C[C@](C)(N)COc1ccc(-c2ccnc3cc[nH]c23)cc1C#N` [Example 421, (S)-2-((2-amino-2,4-dimethylpentyl)oxy)-5-(1H-pyrrolo[3,2-b]pyridin-7-yl)benzonitrile] yielded an IC50 of 0.5 nM.
Molecule `CC(C)C[C@](C)(N)COc1ccc(-c2ccnc3ccn(C)c23)cc1C#N` [Example 423, (S)-2-((2-amino-2,4-dimethylpentyl)oxy)-5-(1-methyl-1H-pyrrolo[3,2-b]pyridin-7-yl)benzonitrile] has an IC50 of 862 nM.
`CC(C)C[C@](C)(N)COc1ccc(-c2ccnc3cc[nH]c23)cc1C(F)(F)F` [Example 424, (S)-1-(4-(1H-pyrrolo[3,2-b]pyridin-7-yl)-2-(trifluoromethyl)phenoxy)-2,4-dimethylpentan-2-amine] was tested, and the IC50 was 1.2 nM.
Work on `CC(C)C[C@](C)(N)COc1ccc(-c2ccnc3c2C(=O)NC3)cc1C(F)(F)F` [Example 425, (S)-4-(4-((2-amino-2,4-dimethylpentyl)oxy)-3-(trifluoromethyl)phenyl)-6,7-dihydro-5H-pyrrolo [3,4-b]pyridin-5-one] yielded an IC50 of 1.4 nM.
For `CC(C)C[C@](C)(N)COc1ccc(-c2ccnc3c2C(=O)N(C)C3)cc1C(F)(F)F` [Example 426, (S)-4-(4-((2-amino-2,4-dimethylpentyl)oxy)-3-(trifluoromethyl)phenyl)-6-methyl-6,7-dihydro-5H-pyrrolo [3,4-b]pyridin-5-one], the IC50 was 7.2 nM.
`Cc1cc(-c2ccnc3ccn(C)c23)ccc1OC[C@@](C)(N)CC(C)C` [Example 427, (S)-2,4-dimethyl-1-(2-methyl-4-(1-methyl-1H-pyrrolo[3,2-b]pyridin-7-yl)phenoxy)pentan-2-amine] was tested, and the IC50 was 1740 nM.
Work on `Cc1cc(-c2ccnc3c2C(=O)NC3)ccc1OC[C@@](C)(N)CC(C)C` [Example 428, (S)-4-(4-((2-amino-2,4-dimethylpentyl)oxy)-3-methylphenyl)-6,7-dihydro-5H-pyrrolo[3,4-b]pyridin-5-one] yielded an IC50 of 13 nM.
For `CC(C)C[C@](C)(N)COc1ccc(-c2ccnc3c2C(=O)N(C)C3)cc1Cl` [Example 429, (S)-4-(4-((2-amino-2,4-dimethylpentyl)oxy)-3-chlorophenyl)-6-methyl-6,7-dihydro-5H-pyrrolo[3,4-b]pyridin-5-one], the IC50 was 36 nM.
`Cc1cc(-c2ccnc3c2C(=O)N(C)C3)ccc1OC[C@@](C)(N)CC(C)C` [Example 430, (S)-4-(4-((2-amino-2,4-dimethylpentyl)oxy)-3-methylphenyl)-6-methyl-6,7-dihydro-5H-pyrrolo[3,4-b]pyridin-5-one] was tested, and the IC50 was 67 nM.
With `CC(C)C[C@](C)(N)COc1ccc(-c2cc(NC3CCOC3)ncn2)cc1C(F)(F)F` (stereo partly drawn) [Example 448, 6-(4-(((S)-2-amino-2,4-dimethylpentyl)oxy)-3-(trifluoromethyl)phenyl)-N-(tetrahydrofuran-3-yl)pyrimidin-4-amine] the IC50 was 399 nM.
With `CC(C)C[C@](C)(N)COc1ncc(-c2cc(NC3CCOC3)ncn2)cc1Cl` (stereo partly drawn) [Example 449, 6-(6-(((S)-2-amino-2,4-dimethylpentyl)oxy)-5-chloropyridin-3-yl)-N-(tetrahydrofuran-3-yl)pyrimidin-4-amine] the IC50 was 352 nM.
Molecule `Cc1cn2nccc(-c3ccc(OC[C@@](C)(N)CC(C)C)c(C)n3)c2n1` [Example 452, (S)-2,4-dimethyl-1-((2-methyl-6-(2-methylimidazo[1,2-b]pyridazin-8-yl)pyridin-3-yl)oxy)pentan-2-amine] has an IC50 of 11 nM.
In the case of `Cc1cn2nccc(-c3ccc(OC[C@@](C)(N)CC(C)C)c(C(F)F)n3)c2n1` [Example 453, (S)-1-((2-(difluoromethyl)-6-(2-methylimidazo[1,2-b]pyridazin-8-yl)pyridin-3-yl)oxy)-2,4-dimethylpentan-2-amine], the IC50 is reported as 0.4 nM.
`CC(C)C[C@](C)(N)COc1ccc(-c2cc(N)nc3ccnn23)c(F)c1` [Example 455, (S)-7-(4-((2-amino-2,4-dimethylpentyl)oxy)-2-fluorophenyl)pyrazolo[1,5-a]pyrimidin-5-amine] gave an IC50 of 391 nM.
Molecule `CC(C)C[C@](C)(N)COc1ccc(-c2ccnc3ccnn23)cc1Cl` [Example 456, (S)-1-(2-chloro-4-(pyrazolo [1,5-a]pyrimidin-7-yl)phenoxy)-2,4-dimethylpentan-2-amine] has an IC50 of 1 nM.
In the case of `CC(C)C[C@](C)(N)COc1ccc(-c2cc(N)nc3ccnn23)cc1F` [Example 457, (S)-7-(4-((2-amino-2,4-dimethylpentyl)oxy)-3-fluorophenyl)pyrazolo[1,5-a]pyrimidin-5-amine], the IC50 is reported as 160 nM.
For `Cc1cc(-c2ccc(OC[C@@](C)(N)CC(C)C)c(Cl)c2)n2nc(C)cc2n1` [Example 459, (S)-1-(2-chloro-4-(2,5-dimethylpyrazolo[1,5-a]pyrimidin-7-yl)phenoxy)-2,4-dimethylpentan-2-amine], the IC50 was 1270 nM.
`CC(C)C[C@](C)(N)COc1ccc(-c2ccnc3ccnn23)cc1C#N` [Example 460, (S)-2-((2-amino-2,4-dimethylpentyl)oxy)-5-(pyrazolo[1,5-a]pyrimidin-7-yl)benzonitrile] was tested, and the IC50 was 0.6 nM.
In the case of `CC(C)C[C@](C)(N)COc1ccc(-c2ccnc3ccnn23)cc1F` [Example 461, (S)-1-(2-fluoro-4-(pyrazolo [1,5-a]pyrimidin-7-yl)phenoxy)-2,4-dimethylpentan-2-amine], the IC50 is reported as 2.9 nM.
Work on `CC(=O)Nc1cc(-c2ccc(OC[C@@](C)(N)CC(C)C)c(F)c2)n2nccc2n1` [Example 463, (S)—N-(7-(4-((2-amino-2,4-dimethylpentyl)oxy)-3-fluorophenyl)pyrazolo [1,5-a]pyrimidin-5-yl) acetamide] yielded an IC50 of 184 nM.
With `Cc1cc(-c2ccc(OC[C@@](C)(N)CC(C)C)c(C#N)c2)n2nc(C)cc2n1` [Example 464, (S)-2-((2-amino-2,4-dimethylpentyl)oxy)-5-(2,5-dimethylpyrazolo[1,5-a]pyrimidin-7-yl)benzonitrile] the IC50 was 495 nM.
For `CC(C)C[C@](C)(N)COc1ccc(-c2ccnc(NC3CCNCC3)c2)cc1C#N` [Example 466, (S)-2-(2-amino-2,4-dimethylpentyloxy)-5-(2-(piperidin-4-ylamino)pyridin-4-yl) benzonitrile], the IC50 was 64 nM.
Work on `CC(C)C[C@](C)(N)COc1ccc(-c2ccnc3ccnn23)cc1C(F)(F)F` [Example 467, (S)-2,4-dimethyl-1-(4-(pyrazolo[1,5-a]pyrimidin-7-yl)-2-(trifluoromethyl)phenoxy)pentan-2-amine] yielded an IC50 of 0.4 nM.
`CC(C)C[C@](C)(N)COc1ccc(-c2ccnc(NC3CCOCC3)c2)cc1C#N` [Example 468, (S)-2-(2-amino-2,4-dimethylpentyloxy)-5-(2-(tetrahydro-2H-pyran-4-ylamino)pyridin-4yl)benzonitrile] was tested, and the IC50 was 54 nM.
`CC(C)C[C@](C)(N)COc1ccc(-c2ccnc(NC3CCNCC3)c2)cc1C(F)(F)F` [Example 470, (S)-4-(4-(2-amino-2,4-dimethylpentyloxy)-3-(trifluoromethyl)phenyl)-N-(piperidin-4-yl)pyridin-2-amine] showed an IC50 of 138 nM.
For `CC(C)C[C@](C)(N)COc1ccc(-c2ncnc3cc(F)c(F)cc23)cc1C(F)(F)F` [Example 471, (S)-1-(4-(6,7-difluoroquinazolin-4-yl)-2-(trifluoromethyl)phenoxy)-2,4-dimethylpentan-2-amine], the IC50 was 6.3 nM.
`Cc1cc(-c2ccnc3ccnn23)ccc1OC[C@@](C)(N)CC(C)C` [Example 472, (S)-2,4-dimethyl-1-(2-methyl-4-(pyrazolo[1,5-a]pyrimidin-7-yl)phenoxy)pentan-2-amine] gave an IC50 of 0.5 nM.
For `CC(C)C[C@](C)(N)COc1ccc(-c2cnn3cccnc23)cc1C(F)(F)F` [Example 473, (S)-2,4-dimethyl-1-(4-(pyrazolo[1,5-a]pyrimidin-3-yl)-2-(trifluoromethyl)phenoxy)pentan-2-amine], the IC50 was 112 nM.
Work on `Cc1nc(-c2cnn3cc(C#N)cnc23)ccc1OC[C@@](C)(N)CC(C)C` [Example 478, (S)-3-(5-((2-amino-2,4-dimethylpentyl)oxy)-6-methylpyridin-2-yl)pyrazolo[1,5-a]pyrimidine-6-carbonitrile] yielded an IC50 of 11 nM.
In the case of `Cc1nc(-c2ccc(OC[C@@](C)(N)CC(C)C)c(C(F)(F)F)c2)c2ccsc2n1` [Example 481, (S)-2,4-dimethyl-1-(4-(2-methylthieno[2,3-d]pyrimidin-4-yl)-2-(trifluoromethyl)phenoxy)pentan-2-amine], the IC50 is reported as 52 nM.
`CC(C)C[C@](C)(N)COc1ccc(-c2ccnc3cc(C4CC4)nn23)cc1Cl` [Example 482, (S)-1-(2-chloro-4-(2-cyclopropylpyrazolo[1,5-a]pyrimidin-7-yl)phenoxy)-2,4-dimethylpentan-2-amine] gave an IC50 of 1.4 nM.
With `CC(C)C[C@](C)(N)COc1ccc(-c2ccnc3cc(C4CC4)nn23)cc1C(F)(F)F` [Example 483, (S)-1-(4-(2-Cyclopropylpyrazolo[1,5-a]pyrimidin-7-yl)-2-(trifluoromethyl)phenoxy)-2,4-dimethylpentan-2-amine] the IC50 was 2.7 nM.
For `CC(C)C[C@](C)(N)COc1ccc(-c2ccnc3cc(C(F)(F)F)nn23)cc1C#N` [Example 485, (S)-2-((2-amino-2,4-dimethylpentyl)oxy)-5-(2-(trifluoromethyl)pyrazolo[1,5-a]pyrimidin-7-yl)benzonitrile], the IC50 was 4.5 nM.
Molecule `CC(C)C[C@](C)(N)COc1cnc(-c2ccnc3ccnn23)cc1C#N` [Example 486, (S)-5-((2-amino-2,4-dimethylpentyl)oxy)-2-(pyrazolo[1,5-a]pyrimidin-7-yl)isonicotinonitrile] has an IC50 of 1370 nM.
`Cc1nc(-c2ccnc3ccnn23)ccc1OC[C@@](C)(N)CC(C)C` [Example 488, (S)-2,4-dimethyl-1-((2-methyl-6-(pyrazolo[1,5-a]pyrimidin-7-yl)pyridin-3-yl)oxy)pentan-2-amine] gave an IC50 of 4 nM.
Work on `CC(C)C[C@](C)(N)COc1cc(F)c(-c2ccnc3ccnn23)cc1F` [Example 489, (S)-1-(2,5-difluoro-4-(pyrazolo[1,5-a]pyrimidin-7-yl)phenoxy)-2,4-dimethylpentan-2-amine] yielded an IC50 of 278 nM.
